Measurements from US5434295A (priority 1994, dated 1995).
“Also recorded” adds a separate entry of the source.

Columns and labels:
[1] = system: voltage-dependent P-type calcium channels; assay: Inhibition of voltage-dependent P-type calcium channels expressed in oocytes; type: biochemical, rat
[2] = system: cerebral ischemia in gerbils; assay: Neurobehavioral scores in gerbils after bilateral common carotid artery occlusion; type: in vivo, Mongolian gerbils
Description: Inhibition of ischemic neuronal damage in gerbils: Temporary blockage of the blood supply to the gerbil brain by surgical ligation of the two major arteries (common carotids) results in transient global forebrain ischemia. Temporary global ischemia produces a delayed, selective degeneration of neurons in the hippocampus, a brain structure essential for memory formation. The ability of various compounds to prevent hippocampal cell loss and the attendant memory deficits is considered a measure of their potency as neuroprotectants in ischemic conditions.
The data are presented as average differential scores between the initial score obtained 5 hrs post-ischemia and that obtained on each successive day. The drug was administered intravenously 30 min post-ischemia.
Mongolian gerbils (male), 65-70 gr (Tumblebrook Farm) underwent the ischemic procedure while anaesthetised with equithisine.
Common carotid arteries (CCA) were isolated and 3-0 silk suture material was positioned loosely round them. The tips of each loop were tied together, and the suture material was buried beside the trachea. The ventral neck incision was then sutured. In the following day, they were lightly anaesthetised with ether, the neck skin wounds were opened and both CCA were occluded for 10 minutes using small artery clips. During the ischemia and until the animals recovered (regaining righting reflexes), they were maintained in a warm state (36.5°-37.5° C. rectal temperature). Thirty minutes following onset of ischemia, animals were reanaesthetised (ether) and the appropriate drug was administered I.V. via the femoral vein.
Clinical evaluation. […] This was done every 24 hours, for the entire 96-hour period. […]
Statistics. Neuroclinical appearance was analyzed using Wilcoxon Rank Sum Test. The histopathological evaluation was analyzed using One-Way ANOVA followed by Duncan's Test.
Gerbils were scored for their clinical symptoms following the ischemic insult according to the system described by Rudolphi et al. (Table 4). Each animal was evaluated daily over 4 consecutive days (Day 1 being the day of CCA occlusion). […]

[3] = system: intraocular pressure (IOP); assay: Ocular hypotensive activity (intraocular pressure) in albino rabbits; type: in vivo, albino rabbit; settings: for Max ΔIOP: ** drug vs. vehicle P < 0.01
Protocol: Bicyclic compounds of the present invention were also tested for IOP lowering effects.
(§1) Sci., 82, 1069-1079 (1993).
The phospholipids and HU-259 were dissolved in the stabilized oily phase. The other excipients were dissolved in the aqueous phase. Both phases were heated separately to 70° C. and dispersed by a magnetic stirrer. Emulsification was completed using a "high speed mixer" for 5 min at 85° C. The resulting emulsion was cooled rapidly below 20° C. and homogenized using a two-stage homogenizing valve assembly (Gaulin Homogenizer, APV Gaulin, Hilversum, The Netherlands) for 5 min. All the manufacturing procedures were carried out under aseptic conditions and a nitrogen atmosphere. The pH was adjusted to 7.4 using a sodium hydroxide solution (10%). The final fine emulsion was filtered to achieve sterility and stored in ampoules. A typical formulation (%, w/w) consisted of the following: HU-259, 0.2%; oily phase, 20.0%; purified fractionated egg phospholipids, 1.2%; nonionic emulsifier, 2%; glycerin, 2.25%; α-tocopherol, 0.02%; methyl and butyl p-hydroxy- benzoic ester, 0.3 and 0.075%, respectively; and water for injection, to 100.0 g. The control emulsion vehicle was prepared using identical experimental conditions but without drug.
IOP was measured by using a pneumatonometer (Digilab T30). Pressure readings were calibrated for verification every 6 h. One drop (50 μl) of local anesthetic (Benoxinate HCl, 0.4% Fischer [Isr] diluted 1:3 with sterile saline) was instilled into each eye prior to IOP measurements.

[4] = Lipophilicity / solubility (statement); type: physicochemical
Protocol: as §1
Several NMDA receptor blockers were tested. These compounds have […] and have to be dissolved in 100% dimethyl sulfoxide (DMSO) and diluted for use in ND-96 that contained 1% DMSO. Therefore, the effect of 1% DMSO on the response to 10^-4 M NMDA and 5×10^-6 M glycine was examined. DMSO had no effect on NMDA response in three different cells.

GABA receptors = assay: Effect on GABA responses in oocytes; type: biochemical, rat
[5] = system: quisqualate-induced toxicity in primary cerebral cortical cell cultures; assay: Protection of cortical neurons in culture from quisqualate-induced toxicity; type: cell-based; settings: Rattus norvegicus, Cortical neurone; 10 μM compound; quisqualate 500 μM; read-out: % of cells rescued from quisqualate-induced toxicity
Protocol: The neuroprotective effects of the compounds of the invention were tested on neurons exposed to various excitotoxins in culture. The compounds tested included HU-259, HU-260, HU-270 and HU-271, which were all shown to have NMDA antagonist properties in mice (Example 13).
The test drugs were examined for their ability to protect neurons in culture from toxic effects of agonists of the different glutamate receptor subtypes (agonists of ionotropic and/or metabotropic glutamate receptors), e.g. NMDA, AMPA, kainate and quisqualate. The culture conditions and assay conditions were all performed as described in Eshhar et al. (NeuroReport 5, No. 3, 1993). In brief, primary cerebral cortical cell cultures were prepared from 18-20 day old rat fetuses by enzymatic dissociation. Resulting cell suspensions were plated on confluent cortical glial cell feder layer (prepared 2 weeks earlier by a similar method). […] Cell viability was determined morphologically following neuron specific enolase immunostaining of cells using the ABC biotin-avidin complex method, and determined quantitatively by measuring the extent of mitochondrial activity in living cells using the XTT-based assay. […] The density of color formation (O.D.), which is proportional to mitochondrial activity, was measured by a plate ELISA reader. The extent of neuroprotectant activity is expressed as % of cells rescued by the drugs tested.

| SMILES | inhibition of activity of voltage-dependent P-type calcium channels [1] | neurobehavioral scores / clinical symptoms ([2]; 8 mg/kg i.v. 30 min post-ischemia) | animals showing no signs ([2]; three days post-ischemia) [%] | animals showing only mild signs ([2]; three days post-ischemia) [%] | AUC (from instillation of treatment until return to baseline IOP) ([3]; contralateral eye) [mmHg × hrs] | contralateral eye pressure lowered by ([3]; contralateral eye, single dose application) [mmHg] | Max ΔIOP ([3]; contralateral eye) [mmHg] | time of maximal ocular hypotensive effect ([3]; post-application) [h] | time at which pressure returned to baseline level ([3]; post-treatment) [h] | duration of statistically significant reduction in IOP compared to vehicle ([3]; single dose 30 microliter 0.2% emulsion) | AUC (from instillation of treatment until return to baseline IOP) ([3]; treated eye) [mmHg × hrs] | Max ΔIOP ([3]; treated eye, single dose 0.2% emulsion) [mmHg] | Pressure dropped by (maximal ocular hypotensive effect) ([3]; treated right eye, 3 h post-application, P<0.01) [mmHg] | lipophilicity [4] | effect on GABA responses (GABA receptors) | inhibition at 10 µM [5] [%] |
| --- | --- | --- | --- | --- | --- | --- | --- | --- | --- | --- | --- | --- | --- | --- | --- | --- |
| CCCCCCC(C)(C)c1cc(OC(C)=O)c([C@H]2C=C(C(=O)O)[C@H]3C[C@@H]2C3(C)C)c(OC(C)=O)c1 [(+)-4-[4-DMH-2,6 diacetoxyphenyl]-2-carboxy-6,6-dimethylbicyclo[3.1.1]hept-2-en] | did not inhibit | improvement in neurobehavioral scores; also recorded: statistically significant improvement compared to controls | 90 | 10 | -7.8 ± 8.1 | 2.5±0.9 | -2.5 ± 0.9 | 3 | 7 | over five hours | -10.9 ± 10.9 | -3.2 ± 0.7 | 3.2±0.7 | very lipophilic | no effect | – |
| CCCCCCC(C)(C)c1cc(OC(C)=O)c([C@H]2C=C(C(=O)NCCO)[C@H]3C[C@@H]2C3(C)C)c(OC(C)=O)c1 [HU-271] | – | – | – | – | – | – | – | – | – | – | – | – | – | – | – | 37 |
